From ChEMBL document CHEMBL4715697, “Synthesis and biological activity of benzamide DNA minor groove binders” (2016)

What was measured:
Assay type in all cases: functional
LOX IMVI [1] = assay: Growth inhibition of human LOX IMVI cells incubated for 48 hrs by sulforhodamine B assay
HL-60(TB) [2] = assay: Growth inhibition of human HL-60(TB) cells assessed as cell growth at 1 uM incubated for 48 hrs by sulforhodamine B assay relative to control; conditions: read-out: Activity
SK-OV-3 = assay: Growth inhibition of human SK-OV-3 cells assessed as cell growth at 100 uM incubated for 48 hrs by sulforhodamine B assay relative to control; conditions: read-out: Activity
NCI-H460 = assay: Growth inhibition of human NCI-H460 cells assessed as cell growth at 0.1 uM incubated for 48 hrs by sulforhodamine B assay relative to control; conditions: read-out: Activity
COLO 205 = assay: Growth inhibition of human COLO 205 cells assessed as cell growth at 1 uM incubated for 48 hrs by sulforhodamine B assay relative to control; conditions: read-out: Activity
Malme-3M [3] = assay: Growth inhibition of human Malme-3M cells assessed as cell growth at 1 uM incubated for 48 hrs by sulforhodamine B assay relative to control; conditions: read-out: Activity
K562 = assay: Growth inhibition of human K562 cells assessed as cell growth at 100 uM incubated for 48 hrs by sulforhodamine B assay relative to control; conditions: read-out: Activity
SNB-19 [4] = assay: Growth inhibition of human SNB-19 cells incubated for 48 hrs by sulforhodamine B assay
786-0 = assay: Growth inhibition of human 786-0 cells assessed as cell growth at 100 uM incubated for 48 hrs by sulforhodamine B assay relative to control; conditions: read-out: Activity
A549 = assay: Growth inhibition of human A549/ATCC cells assessed as cell growth at 100 uM incubated for 48 hrs by sulforhodamine B assay relative to control; conditions: read-out: Activity
T47D = assay: Growth inhibition of human T47D cells assessed as cell growth at 100 uM incubated for 48 hrs by sulforhodamine B assay relative to control; conditions: read-out: Activity
LOX IMVI [5] = assay: Growth inhibition of human LOX IMVI cells assessed as cell growth at 100 uM incubated for 48 hrs by sulforhodamine B assay relative to control; conditions: read-out: Activity
HOP-62 = assay: Growth inhibition of human HOP-62 cells incubated for 48 hrs by sulforhodamine B assay
CAKI-1 [6] = assay: Growth inhibition of human CAKI-1 cells assessed as cell growth at 1 uM incubated for 48 hrs by sulforhodamine B assay relative to control; conditions: read-out: Activity
SNB-19 [7] = assay: Growth inhibition of human SNB-19 cells assessed as cell growth at 0.1 uM incubated for 48 hrs by sulforhodamine B assay relative to control; conditions: read-out: Activity
HL-60(TB) [8] = assay: Growth inhibition of human HL-60(TB) cells incubated for 48 hrs by sulforhodamine B assay
SW-620 = assay: Growth inhibition of human SW-620 cells incubated for 48 hrs by sulforhodamine B assay
OVCAR-4 = assay: Growth inhibition of human OVCAR-4 cells assessed as cell growth at 0.01 uM incubated for 48 hrs by sulforhodamine B assay relative to control; conditions: read-out: Activity
Malme-3M [9] = assay: Growth inhibition of human Malme-3M cells incubated for 48 hrs by sulforhodamine B assay
TK-10 [10] = assay: Growth inhibition of human TK-10 cells incubated for 48 hrs by sulforhodamine B assay
SNB-75 = assay: Growth inhibition of human SNB-75 cells assessed as cell growth at 1 uM incubated for 48 hrs by sulforhodamine B assay relative to control; conditions: read-out: Activity
Hs-578T [11] = assay: Growth inhibition of human Hs-578T cells incubated for 48 hrs by sulforhodamine B assay
CAKI-1 [12] = assay: Growth inhibition of human CAKI-1 cells assessed as cell growth at 100 uM incubated for 48 hrs by sulforhodamine B assay relative to control; conditions: read-out: Activity
MDA-MB-468 = assay: Growth inhibition of human MDA-MB-468 cells assessed as cell growth at 0.01 uM incubated for 48 hrs by sulforhodamine B assay relative to control; conditions: read-out: Activity
SN12C = assay: Growth inhibition of human SN12C cells assessed as cell growth at 100 uM incubated for 48 hrs by sulforhodamine B assay relative to control; conditions: read-out: Activity
M14 = assay: Growth inhibition of human M14 cells incubated for 48 hrs by sulforhodamine B assay
NCI-H23 = assay: Growth inhibition of human NCI-H23 cells assessed as cell growth at 0.1 uM incubated for 48 hrs by sulforhodamine B assay relative to control; conditions: read-out: Activity
TK-10 [13] = assay: Growth inhibition of human TK-10 cells assessed as cell growth at 0.01 uM incubated for 48 hrs by sulforhodamine B assay relative to control; conditions: read-out: Activity
ACHN = assay: Growth inhibition of human ACHN cells incubated for 48 hrs by sulforhodamine B assay
KM12 = assay: Growth inhibition of human KM12 cells assessed as cell growth at 100 uM incubated for 48 hrs by sulforhodamine B assay relative to control; conditions: read-out: Activity
MDA-MB-231 = assay: Growth inhibition of human MDA-MB-231 cells assessed as cell growth at 0.01 uM incubated for 48 hrs by sulforhodamine B assay relative to control; conditions: read-out: Activity
SK-MEL-2 = assay: Growth inhibition of human SK-MEL-2 cells assessed as cell growth at 0.1 uM incubated for 48 hrs by sulforhodamine B assay relative to control; conditions: read-out: Activity
Hs-578T [14] = assay: Growth inhibition of human Hs-578T cells assessed as cell growth at 100 uM incubated for 48 hrs by sulforhodamine B assay relative to control; conditions: read-out: Activity
[15] = read-out: LC50 (the source's name)
[16] = read-out: pLC50 (the source's name) (converted)

CC(=O)Nc1cc(CO[Si](C)(C)C(C)(C)C)cc(NC(=O)c2ccc(C(=O)Nc3cccc(NC(=O)CCCN(C)C)c3)cc2)c1
GI50 (LOX IMVI [1]; read-out: GI50): > 75 µM | LC50 (concentration giving 50% cell kill) (LOX IMVI [1]; read-out: LC50): > 75 µM | TGI (LOX IMVI [1]; read-out: TGI): > 75 µM | GI50 (LOX IMVI [1]; read-out: pGI50 (converted)): > 75.9 µM | LC50 (concentration giving 50% cell kill) (LOX IMVI [1]; read-out: pLC50 (converted)): > 75.9 µM | TGI (LOX IMVI [1]; read-out: pTGI): > 75.9 µM | growth at 1 µM (HL-60(TB) [2]): 86% | growth at 100 µM (SK-OV-3): 93% | growth at 0.1 µM (NCI-H460): 99% | growth at 1 µM (COLO 205): 109% | growth at 1 µM (Malme-3M [3]): 94% | growth at 100 µM (K562): 94% | GI50 (SNB-19 [4]; read-out: GI50): > 75 µM | CC50 (SNB-19 [4]; [15]): > 75 µM | TGI (SNB-19 [4]; read-out: TGI): > 75 µM | GI50 (SNB-19 [4]; read-out: pGI50 (converted)): > 75.9 µM | CC50 (SNB-19 [4]; [16]): > 75.9 µM | TGI (SNB-19 [4]; read-out: pTGI): > 75.9 µM | growth at 100 µM (786-0): 88% | growth at 100 µM (A549): 98% | growth at 100 µM (T47D): 58% | growth at 100 µM (LOX IMVI [5]): 84% | GI50 (HOP-62; read-out: GI50): > 75 µM | CC50 (HOP-62; [15]): > 75 µM | TGI (HOP-62; read-out: TGI): > 75 µM | GI50 (HOP-62; read-out: pGI50 (converted)): > 75.9 µM | CC50 (HOP-62; [16]): > 75.9 µM | TGI (HOP-62; read-out: pTGI): > 75.9 µM | growth at 1 µM (CAKI-1 [6]): 73% | growth at 0.1 µM (SNB-19 [7]): 96% | GI50 (HL-60(TB) [8]; read-out: GI50): > 75 µM | LC50 (HL-60(TB) [8]; read-out: LC50): > 75 µM | TGI (HL-60(TB) [8]; read-out: TGI): > 75 µM | GI50 (HL-60(TB) [8]; read-out: pGI50 (converted)): > 75.9 µM | LC50 (HL-60(TB) [8]; read-out: pLC50 (converted)): > 75.9 µM | TGI (HL-60(TB) [8]; read-out: pTGI): > 75.9 µM | GI50 (SW-620; read-out: GI50): > 75 µM | LC50 (SW-620; read-out: LC50): > 75 µM | TGI (SW-620; read-out: TGI): > 75 µM | GI50 (SW-620; read-out: pGI50 (converted)): > 75.9 µM | LC50 (SW-620; read-out: pLC50 (converted)): > 75.9 µM | TGI (SW-620; read-out: pTGI): > 75.9 µM | growth at 0.01 µM (OVCAR-4): 95% | GI50 (Malme-3M [9]; read-out: GI50): 36.3 µM | LC50 (concentration killing 50% of cells) (Malme-3M [9]; read-out: LC50): > 75 µM | TGI (Malme-3M [9]; read-out: TGI): > 75 µM | GI50 (Malme-3M [9]; read-out: pGI50 (converted)): 36.3 µM | LC50 (concentration killing 50% of cells) (Malme-3M [9]; read-out: pLC50 (converted)): > 75.9 µM | TGI (Malme-3M [9]; read-out: pTGI): > 75.9 µM | GI50 (TK-10 [10]; read-out: GI50): > 75 µM | CC50 (TK-10 [10]; [15]): > 75 µM | TGI (TK-10 [10]; read-out: TGI): > 75 µM | GI50 (TK-10 [10]; read-out: pGI50 (converted)): > 75.9 µM | CC50 (TK-10 [10]; [16]): > 75.9 µM | TGI (TK-10 [10]; read-out: pTGI): > 75.9 µM | growth at 1 µM (SNB-75): 80% | GI50 (Hs-578T [11]; read-out: GI50): > 75 µM | CC50 (Hs-578T [11]; [15]): > 75 µM | TGI (Hs-578T [11]; read-out: TGI): > 75 µM | GI50 (Hs-578T [11]; read-out: pGI50 (converted)): > 75.9 µM | CC50 (Hs-578T [11]; [16]): > 75.9 µM | TGI (Hs-578T [11]; read-out: pTGI): > 75.9 µM | growth at 100 µM (CAKI-1 [12]): 77% | growth at 0.01 µM (MDA-MB-468): 93% | growth at 100 µM (SN12C): 91% | GI50 (M14; read-out: GI50): > 75 µM | CC50 (M14; [15]): > 75 µM | TGI (M14; read-out: TGI): > 75 µM | GI50 (M14; read-out: pGI50 (converted)): > 75.9 µM | CC50 (M14; [16]): > 75.9 µM | TGI (M14; read-out: pTGI): > 75.9 µM | growth at 0.1 µM (NCI-H23): 98% | growth at 0.01 µM (TK-10 [13]): 96% | GI50 (ACHN; read-out: GI50): > 75 µM | CC50 (ACHN; [15]): > 75 µM | TGI (ACHN; read-out: TGI): > 75 µM | GI50 (ACHN; read-out: pGI50 (converted)): > 75.9 µM | CC50 (ACHN; [16]): > 75.9 µM | TGI (ACHN; read-out: pTGI): > 75.9 µM | growth at 100 µM (KM12): 88% | growth at 0.01 µM (MDA-MB-231): 102% | growth at 0.1 µM (SK-MEL-2): 102% | growth at 100 µM (Hs-578T [14]): 89%
